Where a chain is given by its changes, count along the chain named. Calls of active or inactive are those of the source. No cut-off for these calls is given here. Positions of bridges follow the written chain, without caps; N, C: chain ends. Residues, ends and D or L forms follow the SMILES beside them. Bounds are passed on as bounds.

Experiment [1] deals with T1, Melanoma-associated antigen 4 (Homo sapiens), P43358 [R299A].
T1 sequence (whole entry): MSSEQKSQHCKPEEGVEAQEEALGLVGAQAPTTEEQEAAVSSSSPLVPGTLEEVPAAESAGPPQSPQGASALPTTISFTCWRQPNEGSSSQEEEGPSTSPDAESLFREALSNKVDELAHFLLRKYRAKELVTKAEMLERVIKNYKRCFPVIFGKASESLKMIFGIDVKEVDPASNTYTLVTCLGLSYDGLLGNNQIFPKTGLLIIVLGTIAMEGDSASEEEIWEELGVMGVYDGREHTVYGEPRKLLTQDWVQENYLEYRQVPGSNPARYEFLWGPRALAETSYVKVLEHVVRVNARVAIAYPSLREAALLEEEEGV
In words: Binding affinity to recombinant N-terminal His-tagged MAGEA4-MH domain R299A mutant (unknown origin) expressed in Escherichia coli BL21-(DE3) assessed as increase in thermal stability by SYPRO orange dye based differential scanning fluorimetry. The settings on record: dose <= 10.0 µM.

In experiment [2] the test system is T2, Melanoma-associated antigen 4 (Homo sapiens), P43358 [V294A].
T2 sequence (whole entry): T1 sequence (whole entry) with V294A, A299R
The experiment can be described thus: Binding affinity to recombinant N-terminal His-tagged MAGEA4-MH domain V294A mutant (unknown origin) expressed in Escherichia coli BL21-(DE3) assessed as increase in thermal stability by SYPRO orange dye based differential scanning fluorimetry. The settings on record: dose <= 10.0 µM.

Experiment [3] is filed under the species Homo sapiens. In words: Inhibition of Eu-W1024 streptavidin-labeled 6 xHis-tagged MAGEA4-MH domain M161A mutant (unknown origin) expressed in Escherichia coli BL21-(DE3) interaction with Ulight-labeled GST-tagged RAD18 (unknown origin) (267 to 402 residues) at 1 uM by LANCE TR-FRET assay.
Experiment [4] concerns the target T3, Melanoma-associated antigen 4 (Homo sapiens, UniProt P43358).
T3 sequence (P43358 whole entry): T1 sequence (whole entry) with A299R
The experiment can be described thus: Binding affinity to MAGEA4 (unknown origin) expressed in Escherichia coli BL21-(DE3) by isothermal titration calorimetry.

Experiment [5] has as its system T4, Melanoma-associated antigen 4 (Homo sapiens), P43358 [R297A].
T4 sequence (whole entry): T1 sequence (whole entry) with R297A, A299R
In words: Binding affinity to recombinant N-terminal His-tagged MAGEA4-MH domain R297A mutant (unknown origin) expressed in Escherichia coli BL21-(DE3) assessed as increase in thermal stability by SYPRO orange dye based differential scanning fluorimetry. Conditions: dose <= 10.0 µM.

Experiment [6] deals with T5, Melanoma-associated antigen 4 (Homo sapiens), P43358 [V291A].
T5 sequence (whole entry): T1 sequence (whole entry) with V291A, A299R
In words: Binding affinity to recombinant N-terminal His-tagged MAGEA4-MH domain V291A mutant (unknown origin) expressed in Escherichia coli BL21-(DE3) assessed as increase in thermal stability by SYPRO orange dye based differential scanning fluorimetry. Conditions: dose <= 10.0 µM.

Experiment [7] can be described thus: Inhibition of Eu-W1024 streptavidin-labeled 6 xHis-tagged MAGEA4-MH domain (unknown origin) expressed in Escherichia coli BL21-(DE3)/GST-tagged RAD18 (unknown origin) (267 to 402 residues) interaction using Ulight-anti-GST antibody incubated for 30 to 60 mins by LANCE TR-FRET assay. Further details: species or system Homo sapiens.
Another experiment has as its system NCI-H1299. The experiment can be described thus: Inhibition of MAGEA4 in human NCI-H1299 cell lysate interaction with HA-tagged RAD18 (unknown origin) at 1 uM incubated for overnight by co-immunoprecipitation pull down assay. Type of experiment: subcellular.
Experiment [8] is filed under the species Homo sapiens. In words: Inhibition of Eu-W1024 streptavidin-labeled 6 xHis-tagged MAGEA4-MH domain I205A mutant (unknown origin) expressed in Escherichia coli BL21-(DE3) interaction with Ulight-labeled GST-tagged RAD18 (unknown origin) (267 to 402 residues) at 1 uM by LANCE TR-FRET assay.

On to `CC[C@H](C)[C@@H]1NC(=O)[C@H](Cc2ccc(O)cc2)NC(=O)CSC[C@@H](C(N)=O)NC(=O)[C@H](CC(N)=O)NC(=O)[C@H](Cc2cnc[nH]2)NC(=O)[C@H](Cc2ccc(O)cc2)NC(=O)[C@H](CC(=O)O)NC(=O)[C@H](Cc2ccc(O)cc2)NC(=O)[C@H](CC(C)C)NC(=O)[C@H](CCCNC(=N)N)NC1=O` ({CH2CO}-YIRLYDYHNC-NH2; thioether N-10), for which the Tm in experiment [1], in experiment [2], in experiment [5] and in [6] was under 3.5 °C each time. For the same compound, the inhibition entry in the experiment filed under Homo sapiens [3], with NCI-H1299 and in the experiment filed under Homo sapiens [8] was “Active” each time. This compound also registered a Kd in experiment [4] of 36.8 nM. The IC50 in [7] was determined as 3.65 nM.

The values are drawn from ChEMBL document CHEMBL5154904, “Discovery and Structural Basis of the Selectivity of Potent Cyclic Peptide Inhibitors of MAGE-A4” (J Med Chem, 2022).
